According to US8153385B2, “Target protein and target gene in drug designing and screening method” (Reverse Proteomics Research Institute Co., Ltd., priority 2004, dated 2012):

Target: T1, FLJ13397 clone-derived protein (CARP) (Homo sapiens, UniProt Q9H8M7)
T1 construct: A human full-length cDNA clone was expressed as a protein with an N-terminal His tag; His tag (pDEST17 Gateway vector) (N); made in house; host or cells: Escherichia coli BL21star(DE3)pLysS
T1 sequence (Q9H8M7 1-445): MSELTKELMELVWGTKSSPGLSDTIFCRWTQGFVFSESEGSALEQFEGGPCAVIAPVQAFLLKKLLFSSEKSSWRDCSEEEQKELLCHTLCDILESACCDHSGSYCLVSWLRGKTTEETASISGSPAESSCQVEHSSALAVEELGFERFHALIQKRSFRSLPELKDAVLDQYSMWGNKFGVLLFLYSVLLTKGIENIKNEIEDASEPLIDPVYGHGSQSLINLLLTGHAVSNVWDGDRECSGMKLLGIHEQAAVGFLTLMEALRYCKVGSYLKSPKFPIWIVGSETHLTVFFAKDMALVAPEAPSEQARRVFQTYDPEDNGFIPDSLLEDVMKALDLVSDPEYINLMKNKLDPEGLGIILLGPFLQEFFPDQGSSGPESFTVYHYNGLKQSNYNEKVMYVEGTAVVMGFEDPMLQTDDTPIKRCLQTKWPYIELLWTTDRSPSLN
Assay: SEC/MS (size exclusion chromatography / mass analysis) interaction analysis between FLJ13397 clone-derived protein and compounds
Type: binding
Description: BP-reaction was performed on human full-length cDNA clone and the cloning vector Gateway pDONR201 by the PCR cloning method using the Invitrogen Gateway system to yield an entry clone. LR-reaction was performed on this entry clone with the destination vector pDEST17 (Gateway System) and LR Clonase at 25° C. for 60 minutes to yield an expression plasmid. Escherichia coli competent cell BL21star(DE3)pLysS were transformed with this expression plasmid, a clone incorporating the expression vector was selected, and a frozen stock was prepared. The transformant was inoculated into LB medium and precultured, after which it was transferred into SB medium and cultured to induce the expression by IPTG, and the cells were stored frozen.
A human full-length cDNA clone was expressed as a protein with an N-terminal His tag. This clone was purified using BioRobot 8000 (Qiagen) or ACTA Crystal (Amersham). […] In the purification with ACTA Crystal, affinity purification using a HisTrap HP column was followed by gel filtration purification using the Gel Filtration Column HiLoad 16/60 or a 10/30 Superdex 75 prep grade column. The purified fraction was used for interaction analysis after being subjected to SDS-PAGE to verify the estimated molecular weight and purity.
To analyze the interactions between commonly used drugs and proteins expressed from human full-length cDNA clones while keeping both the proteins and the compounds in non-modified, non-immobilized state, size exclusion chromatography (SEC) and mass analysis were used in combination (FIGS. 1 and 2). The specific procedures are shown below.
The compound-protein mixture prepared in step 1 was subjected to chromatography using an SEC column, the compound and the protein were separated by SEC, and the bound compound or compound that interacted with the protein in the protein fraction was analyzed using a mass analyzer.
Protein concentrations were measured using BCA Protein Assay (PIERCE), in consideration of the purity calculated by SDS-PAGE.
Mass analysis was performed using LCQ DECA XP (Thermoelectron) or Q-TOFmicro (Micromass), equipped with an ESI probe. The LC pump used was Agilent 1100 (Yokogawa Analytical Systems), and the autosampler used was HTC-PAL (CTC Analytics) equipped with a cooling stacker.
In the SEC method using a 384-well spin column, Unifilter 100 (Whatman), packed with 10 μL (dry volume) of Bio-Gel P6 (BIO-RAD) and swollen with milliQ water, was used as the SEC column. […] The SEC spin column was mounted on an acetonitrile-aliquoted 384-well U-bottom plate and centrifuged; the SEC spin column filtrate, which is a protein fraction, was retrieved in 50% acetonitrile. The protein precipitate produced by the acetonitrile was removed via centrifugation and filtration for protein removal; the resulting filtrate was concentrated by centrifugation and re-dissolved in 10 μL of 50% methanol to obtain a mass analysis sample. The mobile phase supplied to the mass analyzer was 0.1% formic acid/50% methanol solution in the positive ion mode, and 0.1% ammonia/50% methanol solution in the negative ion mode; these mobile phases were used at a flow rate of 40 μL/min. 2-μL of mass analysis samples were injected using an autosampler at 2-Minute intervals; the mass spectral intensity of the compound was measured to obtain the spectral intensity of the pharmaceutical compound contained in the SEC spin column filtrate (protein fraction eluted from SEC).

[1] = compound 1 μM, protein 0 μM (protein-free reference)
[2] = compound 1 μM, protein 23.75 μM
[3] = compound 10 μM, protein 0 μM (protein-free reference)
[4] = compound 10 μM, protein 23.75 μM
[5] = compound 10 μM, protein 47.5 μM
[6] = compound 100 μM, protein 0 μM (protein-free reference)
[7] = compound 100 μM, protein 23.75 μM
[8] = compound 100 μM, protein 47.5 μM
[9] = compound 250 μM, protein 0 μM (protein-free reference)
[10] = compound 250 μM, protein 23.75 μM
[11] = compound 250 μM, protein 47.5 μM

SMILES	spectrum intensity of the extracted mass range (compound in SEC spin column filtrate) [1]	spectrum intensity of the extracted mass range (compound in SEC spin column filtrate) [2]	spectrum intensity of the extracted mass range (compound in SEC spin column filtrate) (compound 1 μM, protein 47.5 μM)	spectrum intensity of the extracted mass range (compound in SEC spin column filtrate) [3]	spectrum intensity of the extracted mass range (compound in SEC spin column filtrate) [4]	spectrum intensity of the extracted mass range (compound in SEC spin column filtrate) [5]	spectrum intensity of the extracted mass range (compound in SEC spin column filtrate) [6]	spectrum intensity of the extracted mass range (compound in SEC spin column filtrate) [7]	spectrum intensity of the extracted mass range (compound in SEC spin column filtrate) [8]	spectrum intensity of the extracted mass range (compound in SEC spin column filtrate) [9]	spectrum intensity of the extracted mass range (compound in SEC spin column filtrate) [10]	spectrum intensity of the extracted mass range (compound in SEC spin column filtrate) [11]
OCCOCCN1CCN(C(c2ccccc2)c2ccc(Cl)cc2)CC1 (stereo not drawn) [Hydroxyzine]	112855827	126033923	89527484	134387910	108540593	115214088	300477422	567712336	554713461	922692583	919366054	1073610880
COC(=O)Nc1nc2ccc(C(=O)c3cccs3)cc2[nH]1 [Nocodazole]	8235638	5202611	3977550	4879694	6159010	9316181	6162151	33749400	37180973	9512433	131043824	227971112
Nc1nc2ccccc2n1Cc1ccccc1 [2-Amino-1-Benzylbenzimidazole, 2-Amino-1-benzylbenzimidazole]	5598524	1659600	2958392	4341825	4509110	7550402	12703620	32945929	42993061	39100216	125775631	559844
Nc1nc2ccccc2[nH]1 [2-Aminobenzimidazole]	276565	42562	152781	153479	69826	71963	437739	1819414	2080493	2837732	7370524	8155388
COC(=O)Nc1nc2ccc([S+]([O-])c3ccccc3)cc2[nH]1 (stereo not drawn) [Oxfendazole]	23723676	29471243	35025210	28662280	41004899	42911925	106348780	160312456	180803127	128622627	264420112	506800735
CCCOc1ccc2nc(NC(=O)OC)[nH]c2c1 [Oxibendazole]	570160	595458	529117	525337	3533115	9671167	1292692	7303166	8921904	2449247	20401030	13559202
